According to patent publication US10508113B2, “Inhibitors of tyrosine kinase 2 mediated signaling” (AbbVie Inc., priority 2018, dated 2019):
pEC50: −log10 of the molar value.

Biological target: T1, Jak1 (Homo sapiens, UniProt P23458)
T1 construct: endogenous in cells; host or cells: TF1 cells
Experiment: Jak1 (PSTAT3 TF1) alpha screen assay: inhibition of IL-6 induced phosphorylation of STAT3 in TF1 cells
Assay type: cell-based
Conditions: for pEC50: IL-6 induced pSTAT3, TF1 cells; for Tyk2 selectivity over Jak1: calculated from tabulated EC50 data (Jak1 / Tyk2)
How it was run: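 IL-6-starved TF1 cells were preincubated 30 min at 37 °C with compound (top final 25 μM, 8-point 1:5 series), then stimulated with IL-6 (100 ng/mL final) for 30 min at 37 °C. Lysates were read for pSTAT3 (Tyr705) by AlphaScreen SureFire. EC50 from percent-activity dose-response curves.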

T1 sequence (P23458 whole entry): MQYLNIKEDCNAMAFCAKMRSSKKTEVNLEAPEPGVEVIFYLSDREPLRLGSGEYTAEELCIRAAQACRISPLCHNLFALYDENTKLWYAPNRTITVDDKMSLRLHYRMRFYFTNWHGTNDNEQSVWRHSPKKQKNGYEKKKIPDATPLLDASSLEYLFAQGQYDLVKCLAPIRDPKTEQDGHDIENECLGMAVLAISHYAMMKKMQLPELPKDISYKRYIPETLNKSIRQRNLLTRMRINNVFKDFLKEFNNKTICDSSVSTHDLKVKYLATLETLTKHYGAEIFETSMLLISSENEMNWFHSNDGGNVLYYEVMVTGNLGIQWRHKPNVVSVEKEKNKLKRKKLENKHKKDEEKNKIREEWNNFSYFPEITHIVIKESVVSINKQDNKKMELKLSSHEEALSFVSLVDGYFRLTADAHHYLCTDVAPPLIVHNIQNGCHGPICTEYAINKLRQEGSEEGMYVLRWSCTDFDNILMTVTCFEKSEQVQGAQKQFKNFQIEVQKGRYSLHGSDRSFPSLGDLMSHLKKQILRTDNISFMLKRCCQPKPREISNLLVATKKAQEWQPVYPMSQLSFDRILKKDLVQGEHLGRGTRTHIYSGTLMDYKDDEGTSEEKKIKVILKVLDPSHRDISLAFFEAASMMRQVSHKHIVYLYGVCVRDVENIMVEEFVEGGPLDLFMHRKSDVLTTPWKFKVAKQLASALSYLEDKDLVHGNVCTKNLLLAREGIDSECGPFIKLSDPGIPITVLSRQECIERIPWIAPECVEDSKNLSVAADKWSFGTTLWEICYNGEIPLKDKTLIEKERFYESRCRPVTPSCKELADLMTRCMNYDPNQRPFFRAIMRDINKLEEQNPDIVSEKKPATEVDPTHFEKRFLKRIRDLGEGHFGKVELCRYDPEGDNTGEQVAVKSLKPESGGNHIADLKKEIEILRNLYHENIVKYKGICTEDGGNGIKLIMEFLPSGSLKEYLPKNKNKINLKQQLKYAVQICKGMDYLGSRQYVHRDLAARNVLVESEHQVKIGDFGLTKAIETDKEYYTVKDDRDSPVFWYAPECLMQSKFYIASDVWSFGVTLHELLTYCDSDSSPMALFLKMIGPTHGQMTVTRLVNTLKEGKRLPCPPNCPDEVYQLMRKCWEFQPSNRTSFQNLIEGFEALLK

Row | pEC50 | Tyk2 selectivity over Jak1 | Compound
1 | 4.89 | 88-fold | COCc1cc(-c2cn(C)c3cnc(NC(C)=O)cc23)nc([C@]2([C@H](C)O)CCOC2)c1 [Example 22.3, N-(3-(6-((R)-3-((S)-1-hydroxyethyl)tetrahydrofuran-3-yl)-4-(methoxymethyl)pyridin-2-yl)-1-methyl-1H-pyrrolo[2,3-c]pyridin-5-yl)acetamide]
2 | 4.57 | 243-fold | COCc1cc(-c2cn(C)c3cnc(NC(C)=O)cc23)nc([C@]2([C@@H](C)O)CCOC2)c1 [Example 22.4, N-(3-(6-((R)-3-((R)-1-hydroxyethyl)tetrahydrofuran-3-yl)-4-(methoxymethyl)pyridin-2-yl)-1-methyl-1H-pyrrolo[2,3-c]pyridin-5-yl)acetamide]
